Several values for one entry are separate records, joined by “and”; a condition that tells them apart may be missing. Identical values can stand only once. Like-named read-outs stand apart in the source and are kept apart here.
What was measured:
HIV-1 strain HTLV-IIIB = test: In vitro anti-HIV-1 activity, p24 antigen assay in PBMNC; format: cell-based; details: Human immunodeficiency virus 1, HIV-1, HTLV-IIIB, day 7
Excerpt: (§1) Virus stocks. The HIV-1 strain used in this study was HTLV-IIIB (Uckun et al., 1998 Antimicro. Agents and Chemother., 42:383-388). The non-HIV viruses included in the present study were the gancyclovir-sensitive cytomegalovirus (CMV) strain AD169 (ATCC VR-538); acyclovir-sensitive herpes simplex virus (HSV) Type I strain HF (ATCC VR-260); acyclovir-sensitive HSV Type II strain G (ATCC VR-734); adenovirus strain Type 5, strain adenoid 75 (ATCC VR-5); enterovirus strain, ECHO 30, strain Bastianni (ATCC VR-322); and respiratory syncytial virus (RSV), strain Long (ATCC VR-26).
In vitro assays of anti-HIV-1 activity. Normal human peripheral blood mononuclear cells (PBMNC) from HIV-negative donors were cultured 72 hours in RPMI 1640 supplemented with 20% (v/v) heat-inactivated fetal bovine serum (FBS), 3% interleukin-2, 2 mM L-glutamine, 25 mM HEPES, 2 g/L NaHCO3, 50 Tg/mL gentamicin, and 4 Tg/mL phytohemagglutinin prior to exposure to HIV-1 at a multiplicity of infection (MOI) of 0.1 during a 1 hour adsorption period at 37° C. in a humidified 5% CO2 atmosphere. Subsequently, cells were cultured in 96-well microtiter plates (100 TL, 2×10^6 cells/mL) in the presence of various concentrations of compounds 113 or 609. Aliquots of culture supernatants were removed from the wells on the seventh day after infection for p24 antigen assays, as previously described. […] Percent viral inhibition was calculated by comparing the p24 values from untreated infected cells (i.e., virus controls).
Statistical analysis. […] An IC50 value was calculated from each set of triplicate wells using nonlinear regression modeling of the exponential form of the linearized equation (Statview, SAS Institute, Inc., Cary, N.C.). Hydrolysis rates were determined by fitting single exponential decay equations to the disappearance of the compound in alkali conditions (all R^2 values greater than 0.85). […]

[1] = tested on: cytomegalovirus (CMV) strain AD169; test: CMV plaque formation assay in SF cells; format: cell-based; details: Human betaherpesvirus 5
Excerpt: as §1
(§2) Plaque formation assays. Plaque assays were used to examine the activity of the compounds against non-HIV viruses. The skin fibroblast cell line SF (ATCC CRL-2097) was used as a target for AD169, Adenovirus Type 5. […] cell line (ATCC CCL-81) was used as a target for HSV HF and G. The HEP-2 cell line (ATCC CCL-23) was used as a target for the RSV strain Long. These cell lines were cultured at 1×10^5 cells/well in 24-well (all but ECHO 30-infected SF) or 6-well (ECHO 30-infected SF) tissue culture plates with 0.9% methylcellulose or 0.4% SeaPlaque agarose semisolid support. […] Percent inhibition of plaque formation was calculated by comparing the plaque numbers from the test substance-treated infected cells with the plaque numbers from untreated infected cells (i.e., virus controls). The IC50 values were determined using the Statview statistics program (SAS Institute, Inc., Cary, N.C.).
(§3) Statistical analysis. […] An IC50 value was calculated from each set of triplicate wells using nonlinear regression modeling of the exponential form of the linearized equation (Statview, SAS Institute, Inc., Cary, N.C.). […]
(§4) The skin fibroblast cell line SF (ATCC CRL-2097) was used as a target for AD169, Adenovirus Type 5, and ECHO 30; the VERO cell line (ATCC CCL-81) was used as a target for HF and G; and the HEP-2 cell line (ATCC CCL-23) was used as target for the RSV strain Long. Results are expressed as the average IC50 values in μM. […]

[2] = Hydrolysis rate in alkali conditions; format: physicochemical
Description: (§5) Statistical analysis. Each drug was tested at 6-7 different concentrations ranging from 0.0001 μM to 100 μM. Each assay was set up in triplicate wells and repeated 1-3 times. An IC50 value was calculated from each set of triplicate wells using nonlinear regression modeling of the exponential form of the linearized equation (Statview, SAS Institute, Inc., Cary, N.C.). Hydrolysis rates were determined by fitting single exponential decay equations to the disappearance of the compound in alkali conditions (all R^2 values greater than 0.85). The IC50 values obtained were correlated to the log transformed hydrolysis rate constants by fitting a linear model (JMP Software, SAS Institute Inc., Cary, N.C.). P-values less than 0.05 were deemed significant.

[3] = tested on: respiratory syncytial virus (RSV), strain Long; test: RSV plaque formation assay in HEP-2 cells; format: cell-based; details: human respiratory syncytial virus, HEp-2
Excerpt: as §1, §2, §3, §4

[4] = tested on: enterovirus strain, ECHO 30, strain Bastianni; test: Enterovirus plaque formation assay in SF cells; format: cell-based
Excerpt: as §1, §2, §3, §4

[5] = Octanol/water partition coefficient, shake flask method; format: physicochemical; details: 4 hours at room temperature, read-out: Oct/Water (log P)
Description: HPLC purification was achieved using a reverse-phase Lichrospher column (250×4 mm, Hewlett-Packard, RP-18, Cat. #79925) and an isocratic flow (1 ml/minute) consisting of water (70%) and acetonitrile (30%). Melting points were determined using a Melt John's apparatus and are uncorrected. Column chromatography was performed using silica gel obtained from Baker Company. The octanol/water partition coefficient was determined by the shake flask method. The phosphoramidate analogs were added to 2 ml of water and 2 ml of octanol in a glass vial. The mixture was shaken for 4 hours at room temperature. The two phases were carefully separated and filtered through a Millipore filter and analyzed by HPLC. The partition coefficient was calculated using the ratio of the area under the curve for octanol and water, respectively.

[6] = tested on: adenovirus strain Type 5, strain adenoid 75; test: Adenovirus plaque formation assay in skin fibroblast cell line SF; format: cell-based, human adenovirus
Excerpt: as §1
(§6) Plaque formation assays. Plaque assays were used to examine the activity of the compounds against non-HIV viruses. The skin fibroblast cell line SF (ATCC CRL-2097) was used as a target for AD169, Adenovirus Type 5. […] cell line (ATCC CCL-81) was used as a target for HSV HF and G. The HEP-2 cell line (ATCC CCL-23) was used as a target for the RSV strain Long. These cell lines were cultured at 1×10^5 cells/well in 24-well (all but ECHO 30-infected SF) or 6-well (ECHO 30-infected SF) tissue culture plates with 0.9% methylcellulose or 0.4% SeaPlaque agarose semisolid support. Minimum Essential Medium (MEM) with Earle's salts (Gibco), L-glutamine, non-essential amino acids, 2% heat-inactivated fetal bovine serum, 1% penicillin/streptomycin, and 0.05% gentamicin served as the culture medium. The incubation times were 3 days for HF, G, ECHO 30, and Long; and 7 days for AD169 and Adenovirus Type 5. Plaque counting was performed with a 20X dissecting microscope for AD169, Type 5, ECHO 30, and RSV Long, and with a light box for HF and G. The fixative agent was crystal violet for all viruses, except for the CMV strain AD169 for which methylene blue was used. Percent inhibition of plaque formation was calculated by comparing the plaque numbers from the test substance-treated infected cells with the plaque numbers from untreated infected cells (i.e., virus controls). The IC50 values were determined using the Statview statistics program (SAS Institute, Inc., Cary, N.C.).
as §5, with “Hydrolysis rates were determined by fitting single exponential decay equations to the disappearance of the compound in alkali conditions (all R^2 values greater than 0.85).” left out
The skin fibroblast cell line SF (ATCC CRL-2097) was used as a target for AD169, Adenovirus Type 5, and ECHO 30; the VERO cell line (ATCC CCL-81) was used as a target for HF and G; and the HEP-2 cell line (ATCC CCL-23) was used as target for the RSV strain Long. Results are expressed as the average IC50 values in μM. Stavudine (STV) was included as a control.

Solubility = format: physicochemical; details: read-out: Solubility
skin fibroblasts = test: Cytotoxicity in skin fibroblasts (plaque assay); format: cell-based; details: ADV plaque formation assay
Description: as §6, with “Plaque counting was performed with a 20X dissecting microscope for AD169, Type 5, ECHO 30, and RSV Long, and with a light box for HF and G. The fixative agent was crystal violet for all viruses, except for the CMV strain AD169 for which methylene blue was used.” left out

[7] = tested on: herpes simplex virus (HSV) Type I strain HF; test: HSV-1 plaque formation assay in VERO cells; format: cell-based; details: Human alphaherpesvirus 1, HSV-1, Strain HF
Excerpt: as §1, §2, §3, §4

HSV Type II strain G = test: HSV-2 plaque formation assay in VERO cells; format: cell-based, herpes simplex virus Type II; details: Human alphaherpesvirus 2, HSV-2, Strain G
Excerpt: as §1, §2, §3, §4

[8] = Pharmacokinetic studies in mice, intravenous administration; format: in vivo, Balb/c mice; details: for AUC / CL / Cmax / Vss / t1/2 / Tmax: plasma analyte = label
Description: Female Balb/c mice (6-8 weeks old) from Taconic (Germantown, N.Y.) were housed in a controlled environment (12-hours of light/12-hours of dark, 22±1° C., 60±10% relative humidity), which is fully accredited by the USDA. All rodents were housed in microisolator cages (Lab Products, Inc., NJ) containing autoclaved bedding. The mice were allowed free access to autoclaved pellet food and tap water throughout the study.
Blood samples (˜500 μL) were obtained from the ocular venous plexus by retro-orbital venipuncture at 0, 2, 5, 10, 15, 30, 45, 60, 120, 240 and 360 minutes after intravenous injection.
(§8) All collected blood samples were heparinized and centrifuged at 7000×g for 5 minutes to separate the plasma fraction from the whole blood. The plasma samples were then processed immediately using the extraction procedure described above.
(§9) Pharmacokinetic modeling and parameter calculations were carried out using the WinNonlin Professional Version 3.0 (Pharsight, Inc., Mountain, Calif.) pharmacokinetics software (Chen et al., Pharm. Res., 16, 1003 (1999); Chen et al., Pharm. Res., 16, 117 (1999); Chen et al., J. Clin. Pharmacol., 39, 1248 (1999); Uckun et al., Clin. Cancer Res., 5, 2954 (1999); and Uckun et al., J. Pharmacol. Exp. Ther., 291, 1301 (1999)). An appropriate model was chosen on the basis of the lowest sum of weighted squared residuals, the lowest Schwartz Criterion (SC), the lowest Akaike's Information Criterion (AIC) value, the lowest standard errors of the fitted parameters, and the dispersion of the residuals. The elimination half-life was estimated by linear regression analysis of the terminal phase of the plasma concentration-time profile. The area under the concentration-time curve (AUC) was calculated according to the linear trapezoidal rule between the first sampling time (0 hours) and the last sampling time plus C/k, where C is the concentration of the last sampling and k is the elimination rate constant. The systemic clearance (CL) was determined by dividing the dose by the AUC. The metabolic clearance of the parent drug, the formation clearance of the metabolite, the clearance elimination of the metabolite, and the distribution clearance of the metabolite were estimated by simultaneous fitting of the concentration of parent drug and metabolites as a function of time curve to pharmacokinetic models (see FIGS. 7A & 8A) specified as a system of differential equations (Gabrielsson & Weiner, Phamacokinetic/Phamacodynamic Data Analysis: Concepts and Applications, Swedish Pharmaceutical Press (1997)).

[9] = Pharmacokinetic studies in mice, oral administration; format: in vivo, Balb/c mice; details: for AUC / Cmax / Tmax / t1/2: plasma analyte = label, after oral 100 mg/kg compound 113
Description: Female Balb/c mice (6-8 weeks old) from Taconic (Germantown, N.Y.) were housed in a controlled environment (12-hours of light/12-hours of dark, 22±1° C., 60±10% relative humidity), which is fully accredited by the USDA. All rodents were housed in microisolator cages (Lab Products, Inc., NJ) containing autoclaved bedding. The mice were allowed free access to autoclaved pellet food and tap water throughout the study. All animal care procedures conformed to the Guide for the Care and Use of Laboratory Animals (National Research Council, National Academy Press, Washington D.C. 1996).
Sampling time points were 0, 2, 5, 10, 15, 30, 45, 60, 120, 240 and 360 minutes after the gavage.
as §8, §9

Stability in plasma = format: in vitro ADME; details: spiked plasma; 250 μM compound 113, 100 μM Ala-d4T-MP (followed for 1 day)
Description: Plasma samples (200 μL) were mixed 1:4 with acetone (800 μL) and vortexed for at least 30 seconds. Following centrifugation, the supernatant was transferred into a clean tube and was dried under nitrogen. A 50 μL solution of 50% methanol in 200 mM HCl was used to reconstitute the extraction residue, and 40 μL was injected into the HPLC.
(§7) The whole blood samples were placed in a 37° C. water bath, while plasma samples were stored at −20° C. At a predetermined time, an aliquot (100 μl) of spiked whole blood or plasma was extracted by adding 400 μl of acetone to induce precipitation of proteins, as described above.

Stability in whole blood = format: in vitro ADME; details: spiked whole blood 37° C.; 250 μM compound 113, 100 μM Ala-d4T-MP (followed for 1 day)
Description: as §7

[10] = Stability in simulated intestinal fluid; format: in vitro ADME; details: 100 μM, 37° C.
Description: The spiked fluids were then placed in a 37° C. water bath. At a predetermined time, 100 μI aliquots of the spiked gastric or intestinal fluid were extracted by adding 400 μl of acetone as discussed above.

[11] = after i.v. Ala-d4T-MP, model fit, C.V. of modeling in parentheses
[12] = after i.v. compound 113, model fit, C.V. of modeling in parentheses
[13] = after i.v. 75 mg/kg Ala-d4T-MP, estimate from composite curve of pooled data
[14] = after i.v. 75 mg/kg Ala-d4T-MP, mean ± S.E.M
[15] = after i.v. 100 mg/kg compound 113, estimate from composite curve of pooled data
[16] = after i.v. 100 mg/kg compound 113, mean ± S.E.M
[17] = estimate from composite curve of pooled data

## COC(=O)C(C)NP(=O)(OCC1C=CC(n2cc(C)c(=O)[nH]c2=O)O1)Oc1ccc(Cl)cc1 (stereo not drawn) [Compound 609, 5′-[4-Chlorophenylmethoxyalaninyl phosphate]-2′, 3′-didehydro-3′-deoxy thymidine]
HIV-1 strain HTLV-IIIB
  IC50: 1 nM
[1]
  IC50: > 100000 nM
[2]
  Hydrolysis Rate: 0.0216 min⁻¹
[3]
  IC50: > 100000 nM
[4]
  IC50: > 100000 nM
[5]
  logP at 4 h: 0.64
[6]; Adenovirus Type 5, 7 days, ± s.e., read-out: IC50, ADV-induced plaque formation
  IC50: 26.7 nM and 27 nM
[6]; read-out: IC50, ADV-induced plaque formation, Adenovirus Type 5, 7 days, ± s.e.
  IC50: 2.7 ± 3 nM
Solubility
  Solubility: 1400 µg/mL
Skin fibroblasts
  cytotoxicity (in words): without cytotoxicity
[7]
  IC50: > 100000 nM
HSV Type II strain G
  IC50: > 100000 nM

## Cc1cn([C@H]2C=C[C@@H](COP(=O)(O)NC(C)C(=O)O)O2)c(=O)[nH]c1=O (stereo partly drawn) [Ala-d4T-MP, alaninyl-d4T-monophosphate]
[8]; after i.v. Ala-d4T-MP
  share of CLm1 in the total systemic clearance: 99%
[8]; [11]
  CLm1 (metabolic clearance of Ala-d4T-MP / formation clearance of d4T): 15.6 ml/min/kg and 15.6 (16.6%) ml/min/kg
  CLpd (distribution of Ala-d4T-MP to extravascular compartment): 4.7 ml/min/kg and 4.7 (44.7%) ml/min/kg
[8]; [12]
  CLm3 (metabolic clearance of Ala-d4T-MP / formation clearance of d4T): 36.1 mL/min/kg
  CLm1d (distribution of Ala-d4T-MP to the extravascular compartment): 47.1 ml/min/kg and 62.0 (69.8%) ml/min/kg
[8]; metabolite = label, after i.v. compound 113
  fraction of parent converted to the metabolite (fm): 23%
[8]; [13]
  AUC: 11648.7 µM·min
  CL: 15.8 mL/min/kg
  Cmax: 1210 µM
  Vss: 0.2755 L/kg
  t1/2: 28.5 min
[8]; [14]
  AUC: (11761.5 ± 447.2) μM · min
  CL: (15.7 ± 0.6) ml/min/kg
  Cmax: 1660 µM
  Vss: (412.6 ± 126.3) ml/kg
  t1/2: (91.5 ± 54.5) min
[8]; [15]
  AUC: 2854.8 µM·min
  Cmax: 67.4 µM
  Tmax: 5.9 min
  t1/2: 129.2 min
[8]; [16]
  AUC: (2795.9 ± 361.2) μM · min
  Cmax: 69.3 µM
  Tmax: (5.1 ± 0.7) min
  t1/2: (138.8 ± 40.2) min
[9]; metabolite = label, after oral administration of compound 113
  estimated bioavailability: approximately 12%
[9]; [17]
  AUC: 1350.5 µM·min
  Cmax: 12.7 µM
  Tmax: 10.3 min
  t1/2: 66.4 min
[9]; mean ± S.E.M
  AUC: (1355.4 ± 88.2) μM · min
  Cmax: 15.6 µM
  Tmax: (9.3 ± 0.9) min
  t1/2: (56.1 ± 8.5) min
Stability in plasma
  stability in plasma (in words): stable
Stability in whole blood
  stability in whole blood (in words): stable
[10]
  stability in intestinal fluid (in words): stable
